# According to patent US12453709B2, “Compositions and methods for treating autism” (priority 2013, dated 2025):
# Columns and labels:
# [1] = system: male patients diagnosed with autism; assay: Study HT 02-121: Vineland Adaptive Behavior Scales, Second Edition (VABS II); assay type: in vivo, human; settings: Week 4/LOCF
# Experimental: (§1) This clinical study was a randomized double-blind, placebo-controlled two-cohort, 4-week dose-escalation study that incorporated two open-label treatment groups to assess the safety and efficacy of L1-79 100 mg and 200 mg TID in male patients between the ages of […] years of age diagnosed with autism. The first cohort of 20 patients was comprised of three groups of patients: The first group of five patients received open-label L1-79 100 mg TID and underwent PK and EKG assessments. The remaining two groups in this cohort consisted of 15 patients randomized on a 2:1 basis to receive L1-79 100 mg TID or placebo. The PK and safety data from the open-label L1-79 100 mg TID group was submitted to FDA for review and acceptance before the second cohort was enrolled. The second cohort was procedurally identical to the first. The second cohort of 20 patients was comprised of the same three groups of patients but a dose of 200 mg TID was used instead of 100 mg TID. The key inclusion criteria were as follows: (1) males between 13 and 21 years of age, (2) DSM-5 compliant diagnosis of autism spectrum disorder, confirmed by the Autistic Diagnosis Interview Review (ADIR), and by an ADOS-2 score consistent with a diagnosis of autism, (3) must have been stable on no more than one concomitant medication and no planned changes in psychosocial interventions during the study.
# (§2) The primary efficacy endpoint was the determination of the clinical improvement by the investigator as documented by the Clinical Global Impression (CGI) rating scales. Additional efficacy endpoints included: (1) changes from baseline in the Socialization and Communication Domains of the Vineland Adaptive Behavior Scales, Second Edition (VABS II) parent/caregiver rating form, (2) changes from baseline in the ADOS-2 Total Score and subscores, (3) changes in the Social Responsiveness Scale, Second Edition (SRS-2) Total Score and subscales, (4) changes in the ABC-C domains, (5) changes in the Repetitive Behavior Scale-Revised (RBS-R) Total Score and subscales. Given the exploratory design of this study only descriptive statistics were planned.
# (§3) In the preliminary study, all forms were completed at the study site in the presence of the investigator. In Cohort 1 of the present study, the VABS-II, SRS-2, ABC-C and RBS-R were filled out at home by the patient/patient's families prior to treatment visits and returned at treatment visits in order to expedite the execution of the study.
# [2] = system: male patients diagnosed with autism; assay: Study HT 02-121: Autism Diagnostic Observation Schedule (ADOS-2); assay type: in vivo, human; settings: for ADOS-2 Restricted and Repetitive Behavior Mean Change from Screening / ADOS-2 Restricted and Repetitive Behavior Treatment effect versus placebo / ADOS-2 Restricted and Repetitive Behavior change, median / ADOS-2 Social Affect Mean Change from Screening / ADOS-2 Social Affect Treatment effect versus placebo / ADOS-2 Social Affect change, median / ADOS-2 Total Score Mean Change from Screening / ADOS-2 Total Score Treatment effect versus placebo / ADOS-2 Total Score change from Screening, median: Week 4/LOCF
# Experimental: as §1, §2, §3
# [3] = system: patients with autism; assay: Example 5: open-label evaluation of L1-79 (ABC-C, ADOS-2); assay type: in vivo, human
# Experimental: L1-79 was used anecdotally in two patients followed by a more structured evaluation in 8 additional patients with autism. All patients were administered a starting dose of L1-79 of 90 mg TID for a minimum of 3 months. During the evaluation doses as high as 400 mg TID were used. A summary of data available on these 10 patients was provided in the Summary of Clinical Efficacy, Use of L1-79 to treat autism, submitted to IND 128673, sequence number 0005.
# [4] = system: patients qualified under the DSM-5 definition of autism; assay: Example 4: adverse events and clinical observation; assay type: in vivo, human
# Experimental: α-methyl-DL tyrosine (AMPT) was administered to 3 patients. This group of patients was qualified under the DSM-5 definition of autism and treated.
# [5] = Study HT 02-121: L1-79 plasma concentrations (pharmacokinetics); assay type: in vivo; settings: male, human, open-label 200 mg TID, read-out: plasma concentration at 1-hour post-dose on Day 1
# Experimental: The first five patients in each cohort were assigned to receive active medication in an open-label fashion. The patients were treated identically to the randomized patients with the following exceptions: (1) blood samples were drawn at baseline and 1 hour after dosing, and at Week 1, 2, 3 and 4 treatment visits 1 hour after dosing to determine the PK of L1-79, (2) EKGs were assessed at baseline and within 3-days prior to the Week 1, 2, 3 and 4 treatment visits as well as the 1-week and 4-week post-dosing follow-up visits, (3) vital signs, physical exams, and ASD assessments were performed at 1-week postdosing visit, (4) blood and urine samples were drawn at baseline and at Week 1, 2, 3 and 4 treatment visits 1 hour after dosing as well as the 1-week and 4-week post-dosing follow-up visits for safety analyses.
# Pharmacokinetics were assessed in the open-label 100 mg and 200 mg TID patients. On Day 1, L-79 concentrations were assessed one-hour post dose. Subsequently, a random L1-79 plasma concentration was assessed at Week 1, Week 2, Week 3 and Week 4.
compound,measurement,setting,value
"CC(N)(Cc1ccc(O)cc1)C(=O)O (racemic) [L1-79, α-methyl-DL-tyrosine]",VABS II Standardized Communication Score Mean Change from Baseline,[1]; DB 100 mg TID,10.1
same,VABS II Standardized Communication Score Treatment effect versus placebo,[1]; DB 100 mg TID,3.6
same,"VABS II Standardized Communication Score change, median",[1]; DB 100 mg TID,"−1, 5, 16"
same,VABS II Standardized Socialization Score Mean Change from Baseline,[1]; DB 100 mg TID,−4.2
same,VABS II Standardized Socialization Score Treatment effect versus placebo,[1]; DB 100 mg TID,−5.0
same,"VABS II Standardized Socialization Score change, median",[1]; DB 100 mg TID,"−13, −12, 9"
same,VABS II Standardized Communication Score Mean Change from Baseline,[1]; DB 200 mg TID,2.7
same,VABS II Standardized Communication Score Treatment effect versus placebo,[1]; DB 200 mg TID,−3.8
same,"VABS II Standardized Communication Score change, median",[1]; DB 200 mg TID,"0, 1, 3"
same,VABS II Standardized Socialization Score Mean Change from Baseline,[1]; DB 200 mg TID,7.6
same,VABS II Standardized Socialization Score Treatment effect versus placebo,[1]; DB 200 mg TID,6.8
same,"VABS II Standardized Socialization Score change, median",[1]; DB 200 mg TID,"0, 1, 20"
same,ADOS-2 Restricted and Repetitive Behavior Mean Change from Screening,[2]; DB 100 mg TID,0.3
same,ADOS-2 Restricted and Repetitive Behavior Treatment effect versus placebo,[2]; DB 100 mg TID,0.5
same,"ADOS-2 Restricted and Repetitive Behavior change, median",[2]; DB 100 mg TID,"−1, 0, 1"
same,ADOS-2 Social Affect Mean Change from Screening,[2]; DB 100 mg TID,−0.9
same,ADOS-2 Social Affect Treatment effect versus placebo,[2]; DB 100 mg TID,−1.0
same,"ADOS-2 Social Affect change, median",[2]; DB 100 mg TID,"−2, 0, 1"
same,ADOS-2 Total Score Mean Change from Screening,[2]; DB 100 mg TID,−0.6
same,ADOS-2 Total Score Treatment effect versus placebo,[2]; DB 100 mg TID,−0.6
same,"ADOS-2 Total Score change from Screening, median",[2]; DB 100 mg TID,"−1, 0, 0"
same,ADOS-2 Restricted and Repetitive Behavior Mean Change from Screening,[2]; DB 200 mg TID,−1.0
same,ADOS-2 Restricted and Repetitive Behavior Treatment effect versus placebo,[2]; DB 200 mg TID,−0.9
same,"ADOS-2 Restricted and Repetitive Behavior change, median",[2]; DB 200 mg TID,"−2, −1, 0"
same,ADOS-2 Social Affect Mean Change from Screening,[2]; DB 200 mg TID,0.0
same,ADOS-2 Social Affect Treatment effect versus placebo,[2]; DB 200 mg TID,−0.1
same,"ADOS-2 Social Affect change, median",[2]; DB 200 mg TID,"−1, 1, 1"
same,ADOS-2 Total Score Mean Change from Screening,[2]; DB 200 mg TID,−1.0
same,ADOS-2 Total Score Treatment effect versus placebo,[2]; DB 200 mg TID,−1.0
same,"ADOS-2 Total Score change from Screening, median",[2]; DB 200 mg TID,"−1, −1, 0"
same,improvement from baseline in ADOS-2 scores,[2]; less than one month of treatment,nearly one point
same,effect of longer treatment on core symptoms,[3]; open-label,greater magnitude of therapeutic benefits
same,ABC-C domains,"[3]; open-label, 10 patients",consistent improvements
same,average reduction in the ADOS-2,"[3]; open-label, 10 patients, from 90 mg TID, minimum 3 months",30%
same,ADOS-2 decrease in one child (loss of autism diagnosis),"[3]; open-label, one child",60%
same,benefits after discontinuation,[3]; study drug discontinued,not all of the benefits regressed
same,adverse events reported,[4]; Example 4 patients,mild tiredness on the first day of dosing in two patients
same,"clinical improvements, onset and durability",[4]; Example 4 patients,begin quickly and are durable
same,Adverse Events,"[4]; patient 01-001, 90 TID",None
same,Adverse Events,"[4]; patient 01-002, 90 TID",None
same,Adverse Events,"[4]; patient 01-003, 90 TID",None
same,concentration at 1 h,[5],23 to 1680 ng/mL
